BigSolDB 2.1

O=[N+]([O-])c1ccc(Oc2ccc([N+](=O)[O-])cc2)cc1
solubility (mole fraction)
Conditions | 283.15 K | 288.15 K | 293.15 K | 298.15 K | 303.15 K | 308.15 K | 313.15 K | 318.15 K | 323.15 K
in 1,4-dioxane | 0.026 | 0.0325 | 0.0409 | 0.0489 | 0.0575 | 0.0674 | 0.08 | 0.0922 | 0.11
in 1-methoxy-2-propanol | 0.00539 | 0.00657 | 0.0071 | 0.00864 | 0.00979 | 0.0114 | 0.0137 | 0.0162 | 0.0198
in 2-methoxyethanol | 0.00657 | 0.00753 | 0.00823 | 0.0103 | 0.0116 | 0.0131 | 0.0158 | 0.0182 | 0.022
in DMAc | 0.0802 | 0.0866 | 0.0913 | 0.103 | 0.115 | 0.126 | 0.144 | 0.164 | 0.184
in DMF | 0.0524 | 0.0612 | 0.0663 | 0.077 | 0.0883 | 0.0933 | 0.111 | 0.126 | 0.152
in acetic acid | 0.00292 | 0.00347 | 0.00366 | 0.00469 | 0.00525 | 0.00612 | 0.0072 | 0.00835 | 0.0103
in acetone | 0.0155 | 0.0173 | 0.0197 | 0.0246 | 0.0281 | 0.0333 | 0.0401 | 0.0484 | 0.0571
